Article PMC3898987 (Bioorganic & Medicinal Chemistry, 2013)
Residue numbers refer to the chain shown, from its start.

How the values were obtained:
[1] = target: T1, 5-HT3AB receptor, 5-HT3B subunit W90C (Homo sapiens, UniProt O95264+P46098, W83C); experiment: cell-based
T1 sequence (P46098 24-478): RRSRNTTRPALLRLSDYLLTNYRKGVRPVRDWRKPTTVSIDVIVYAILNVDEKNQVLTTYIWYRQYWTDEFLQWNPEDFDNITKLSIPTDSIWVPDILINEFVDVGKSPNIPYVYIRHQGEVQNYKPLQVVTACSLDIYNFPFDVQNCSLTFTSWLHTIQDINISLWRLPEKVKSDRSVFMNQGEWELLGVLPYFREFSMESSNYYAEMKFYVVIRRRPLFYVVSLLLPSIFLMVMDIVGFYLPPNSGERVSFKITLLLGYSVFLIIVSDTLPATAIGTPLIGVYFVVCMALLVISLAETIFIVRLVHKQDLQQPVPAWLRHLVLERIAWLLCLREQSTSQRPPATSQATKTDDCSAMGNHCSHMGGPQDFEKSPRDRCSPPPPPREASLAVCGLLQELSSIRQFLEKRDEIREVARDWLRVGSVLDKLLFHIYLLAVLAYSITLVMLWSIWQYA
T1 sequence (O95264 22-441 W83C): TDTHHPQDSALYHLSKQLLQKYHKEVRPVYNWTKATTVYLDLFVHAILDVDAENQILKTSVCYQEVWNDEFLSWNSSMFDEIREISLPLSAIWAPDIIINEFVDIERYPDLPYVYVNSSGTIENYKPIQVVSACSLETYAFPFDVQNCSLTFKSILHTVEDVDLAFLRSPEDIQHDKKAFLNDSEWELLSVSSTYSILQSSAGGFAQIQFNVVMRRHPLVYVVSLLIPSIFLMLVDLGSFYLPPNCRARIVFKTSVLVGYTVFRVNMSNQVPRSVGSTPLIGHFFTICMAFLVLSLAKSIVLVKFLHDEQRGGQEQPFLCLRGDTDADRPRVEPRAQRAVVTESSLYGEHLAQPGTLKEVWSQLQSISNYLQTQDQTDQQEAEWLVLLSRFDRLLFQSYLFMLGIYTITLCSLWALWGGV
Procedure: (§1) Human embryonic kidney (HEK) 293 cells were cultured on 90 mm tissue culture plates at 37 °C and 7% CO2 in a humidified atmosphere. They were grown in DMEM:F12 (Dulbecco’s Modified Eagle’s Medium/Nutrient Mix F12 (1:1)) with GlutaMAX I™ containing 10% fetal calf serum and passaged when confluent. […] For FlexStation assays, transfected cells were plated on 96-well plates and incubated 1–2 days before assay.
(§2) Fluorometric studies were undertaken using a FlexStation® (Molecular Devices, Sunnyvale, CA, USA) as previously described.[11]
(§3) Fluorescence was measured every 2 s for 200 s. […] Concentration–response and inhibition curves were obtained for each mutant, and the fluorescence values were normalized to the maximal response.

5-HT3A receptor D165A = target: T2, 5-HT3A receptor D165A (Homo sapiens, UniProt P46098, D160A); experiment: radioligand saturation binding, transfected HEK293 membranes; settings: [3H]-palonosetron saturation, 5-HT3A D165A, 4 °C, 24 h
T2 sequence (P46098 24-478 D160A): T1 sequence (P46098 24-478) with D137A
Procedure: (§4) Human embryonic kidney (HEK) 293 cells were cultured on 90 mm tissue culture plates at 37 °C and 7% CO2 in a humidified atmosphere. They were grown in DMEM:F12 (Dulbecco’s Modified Eagle’s Medium/Nutrient Mix F12 (1:1)) with GlutaMAX I™ containing 10% fetal calf serum and passaged when confluent. For radioligand binding studies, cells in 90 mm dishes were transfected at 60–70% confluency using polyethyleneimine and incubated for 3–4 days before use. For FlexStation assays, transfected cells were plated on 96-well plates and incubated 1–2 days before assay. […]
(§5) Eight-point binding assays were performed to produce saturation binding curves. […] Radioactive counts were measured using a Beckman LS6000SC liquid scintillation counter (Fullerton, California, USA).
(§6) Data were analyzed by iterative curve fitting using GraphPad Prism v5 (San Diego, CA) according to the following equation: B=Bmax[L]^n/kdn+[L]^n where B is the amount of bound radioligand, Bmax is the maximum specific binding at equilibrium, [L] is the concentration of radioligand, Kd is the equilibrium dissociation constant of the radioligand, and n is the Hill coefficient.

5-HT3A receptor W183C = target: T3, 5-HT3A receptor W183C (Homo sapiens, UniProt P46098, W178C); experiment: as above; settings: [3H]-palonosetron saturation, 5-HT3A W183C, 4 °C, 24 h, NB = no binding
T3 sequence (P46098 24-478 W178C): T1 sequence (P46098 24-478) with W155C
Procedure: as §4, §5, §6

5-HT3A receptor Y73S = target: T4, 5-HT3A receptor Y73S (Homo sapiens, UniProt P46098, Y68S); experiment: as above; settings: [3H]-palonosetron saturation, 5-HT3A Y73S, 4 °C, 24 h
T4 sequence (P46098 24-478 Y68S): T1 sequence (P46098 24-478) with Y45S
Procedure: as §4, §5, §6

[2] = target: T5, 5-HT3AB receptor, 5-HT3B subunit H73A (Homo sapiens, UniProt O95264+P46098, H66A); experiment: cell-based
T5 sequence (P46098 24-478): T1 sequence (P46098 24-478)
T5 sequence (O95264 22-441 H66A): T1 sequence (O95264 22-441 W83C) with H45A, C62W
Procedure: as §1, §2, §3

O=C1c2cccc3c2[C@H](CCC3)CN1[C@@H]1CN2CCC1CC2 [Palonosetron] was tested, and the IC50 [1] was 0.37 ± 0.1 nM, the Kd (5-HT3A receptor D165A) was 0.3 ± 0.08 nM and the Kd (5-HT3A receptor W183C) was > 2 nM. The Kd (5-HT3A receptor W183C; listed as [^3H]palonosetron) was “no saturable, specific binding”, the Kd (5-HT3A receptor Y73S) was 0.61 ± 0.11 nM and the IC50 [2] was 0.97 ± 0.26 nM.
